The values that follow are results of earlier work, collected in patent publication US20050065125A1, “2-alkylidene-19-nor-vitamin D derivatives for the treatment of osteopenia or male osteoporosis” (Pfizer Inc, priority 2003, published 2005).

The conditions of the series: chronic mode, 7 days, rats.

Each structure is given as a SMILES string.

For `C=C1[C@H](O)CC(=C/C=C2\CCC[C@]3(C)[C@@H]([C@@H](C)CCCC(C)(C)O)CC[C@@H]23)C[C@H]1O` [2-Methylene-19-Nor-20S-1,25-(OH)2D3, (20S)-1α,25-dihydroxy-2-methylene-19-nor-vitamin D3], the “Bone calcium mobilization (serum calcium) activity relative to the native hormone 1,25-(OH)2D3” value was “at least 10 times”.

In the case of `C=C1[C@H](O)CC(=C/C=C2\CCC[C@]3(C)[C@@H]([C@H](C)CCCC(C)(C)O)CC[C@@H]23)C[C@H]1O` [2-Methylene-19-Nor-1,25-(OH)2D3, 1α,25-dihydroxy-2-methylene-19-nor-vitamin D3], the “Bone calcium mobilization (serum calcium) activity relative to the native hormone 1,25-(OH)2D3” value is recorded as 10-100 times.
